Assays:
[1] = molecular target: PARG (Homo sapiens, UniProt Q86W56); experiment: Biochemical assay (PARG, TFMU-ADPr substrate); details: PARG, TFMU-ADPr substrate
[2] = system: HCC1806; experiment: Cell viability assay (CellTiter-Glo); assay type: cell-based, Human; details: Homo sapiens, HCC1806, 168 h, HCC1806, 7 days, CellTiter-Glo; read-out: IC50 (nM) in cell viability assay

Chain of PARG (Q86W56 whole entry): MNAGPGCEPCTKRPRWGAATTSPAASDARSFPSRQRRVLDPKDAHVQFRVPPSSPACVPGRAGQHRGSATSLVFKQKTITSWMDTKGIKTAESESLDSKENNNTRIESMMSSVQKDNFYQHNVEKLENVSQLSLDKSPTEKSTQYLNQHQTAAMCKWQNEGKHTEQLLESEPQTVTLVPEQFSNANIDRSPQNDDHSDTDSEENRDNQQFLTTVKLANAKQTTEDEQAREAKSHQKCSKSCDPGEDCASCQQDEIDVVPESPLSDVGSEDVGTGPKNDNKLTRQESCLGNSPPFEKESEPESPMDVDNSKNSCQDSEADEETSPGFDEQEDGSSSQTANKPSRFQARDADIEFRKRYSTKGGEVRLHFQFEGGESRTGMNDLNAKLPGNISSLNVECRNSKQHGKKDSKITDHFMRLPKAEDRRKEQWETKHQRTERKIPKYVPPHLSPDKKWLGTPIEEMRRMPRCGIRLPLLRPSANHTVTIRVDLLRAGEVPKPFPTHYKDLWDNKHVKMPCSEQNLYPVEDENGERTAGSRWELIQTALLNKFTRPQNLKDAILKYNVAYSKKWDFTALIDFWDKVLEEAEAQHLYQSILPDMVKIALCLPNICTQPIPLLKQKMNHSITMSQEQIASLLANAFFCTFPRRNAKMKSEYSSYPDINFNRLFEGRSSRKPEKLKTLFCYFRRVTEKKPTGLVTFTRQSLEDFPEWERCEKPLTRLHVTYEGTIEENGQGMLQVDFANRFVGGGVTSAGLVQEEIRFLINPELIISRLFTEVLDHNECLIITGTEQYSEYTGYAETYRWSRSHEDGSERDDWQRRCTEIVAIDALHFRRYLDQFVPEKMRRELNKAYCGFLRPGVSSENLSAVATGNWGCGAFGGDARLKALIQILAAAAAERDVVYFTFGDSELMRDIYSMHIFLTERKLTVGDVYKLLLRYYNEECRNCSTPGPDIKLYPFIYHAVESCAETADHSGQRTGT

COC1(C(=O)N2CCN(c3c(F)c(S(=O)(=O)NC4(C)CC4)cn4c(-c5nnc(C(F)F)s5)ncc34)CC2)CC1 [Example 198, 3-(5-(difluoromethyl)-1,3,4-thiadiazol-2-yl)-7-fluoro-8-(4-(1-methoxycyclopropane-1-carbonyl)piperazin-1-yl)-N-(1-methylcyclopropyl)imidazo[1,5-a]pyridine-6-sulfonamide]
IC50 [1]: 0.66 nM
IC50 [2]: 27.8 nM

COC1(C(=O)N2CCN(c3cc(S(=O)(=O)NC4(C)CC4)cn4c(-c5nnc(C(F)(F)F)s5)nc(C#N)c34)CC2)CC1 [Example 199, 1-cyano-8-(4-(1-methoxycyclopropane-1-carbonyl)piperazin-1-yl)-N-(1-methylcyclopropyl)-3-(5-(trifluoromethyl)-1,3,4-thiadiazol-2-yl)imidazo[1,5-a]pyridine-6-sulfonamide]
IC50 [1]: 0.34 nM
IC50 [2]: 11.5 nM

COC1(C(=O)N2CCN(c3cc(S(=O)(=O)NC4(C)CC4)cn4c(-c5nnc(C(F)F)s5)ncc34)C[C@H]2CF)CC1 [Example 200, (S)-3-(5-(difluoromethyl)-1,3,4-thiadiazol-2-yl)-8-(3-(fluoromethyl)-4-(1-methoxycyclopropane-1-carbonyl)piperazin-1-yl)-N-(1-methylcyclopropyl)imidazo[1,5-a]pyridine-6-sulfonamide]
IC50 [1]: 0.63 nM
IC50 [2]: 54.6 nM

COC1(C(=O)N2CCN(c3cc(S(=O)(=O)NC4(C)CC4)cn4c(-c5nnc(C(F)F)s5)ncc34)C[C@H]2CO)CC1 [Example 201, (S)-3-(5-(difluoromethyl)-1,3,4-thiadiazol-2-yl)-8-(3-(hydroxymethyl)-4-(1-methoxycyclopropane-1-carbonyl)piperazin-1-yl)-N-(1-methylcyclopropyl)imidazo[1,5-a]pyridine-6-sulfonamide]
IC50 [1]: 0.14 nM
IC50 [2]: 9.06 nM

CC(C)OC1(C(=O)N2CCN(c3cc(S(=O)(=O)NC4(C)CC4)cn4c(-c5nnc(C(F)(F)F)s5)ncc34)CC2)CC1 [Example 202, 8-(4-(1-isopropoxycyclopropane-1-carbonyl)piperazin-1-yl)-N-(1-methylcyclopropyl)-3-(5-(trifluoromethyl)-1,3,4-thiadiazol-2-yl)imidazo[1,5-a]pyridine-6-sulfonamide]
IC50 [1]: 1.16 nM
IC50 [2]: 133 nM

C[C@@H]1CN(c2cc(S(=O)(=O)NC3(C#N)CC3)cn3c(-c4nnc(C(F)F)s4)cnc23)CCN1C(=O)C1(C)CC1 [Example 204, (R)-N-(1-cyanocyclopropyl)-3-(5-(difluoromethyl)-1,3,4-thiadiazol-2-yl)-8-(3-methyl-4-(1-methylcyclopropane-1-carbonyl)piperazin-1-yl)imidazo[1,2-a]pyridine-6-sulfonamide]
IC50 [1]: 36.3 nM
IC50 [2]: 360 nM

CC(C)C(=O)N1CCN(c2cc(S(=O)(=O)NC3(C#N)CC3)cn3c(-c4nnc(C(F)(F)F)s4)ncc23)C[C@H]1C [Example 205, (R)-N-(1-cyanocyclopropyl)-8-(4-isobutyryl-3-methylpiperazin-1-yl)-3-(5-(trifluoromethyl)-1,3,4-thiadiazol-2-yl)imidazo[1,5-a]pyridine-6-sulfonamide]
IC50 [1]: 22.9 nM
IC50 [2]: 699 nM

CC(C)C(=O)N1CCN(c2cc(S(=O)(=O)NC3(C#N)CC3)cn3c(-c4nnc(C(F)F)s4)cnc23)C[C@H]1C [Example 206, (R)-N-(1-cyanocyclopropyl)-3-(5-(difluoromethyl)-1,3,4-thiadiazol-2-yl)-8-(4-isobutyryl-3-methylpiperazin-1-yl)imidazo[1,2-a]pyridine-6-sulfonamide]
IC50 [1]: 21.9 nM
IC50 [2]: 1180 nM

CC(C)C(=O)N1CCN(c2cc(S(=O)(=O)NC3(C#N)CC3)cn3c(-c4nnc(C(F)(F)F)s4)cnc23)CC1 [Example 207, N-(1-cyanocyclopropyl)-8-(4-isobutyrylpiperazin-1-yl)-3-(5-(trifluoromethyl)-1,3,4-thiadiazol-2-yl)imidazo[1,2-a]pyridine-6-sulfonamide]
IC50 [1]: 39.8 nM
IC50 [2]: 1200 nM

CC(C)C(=O)N1CCN(c2cc(S(=O)(=O)NC3CC3)cn3c(-c4nnc(C(F)(F)F)s4)cnc23)CC1 [Example 208, N-cyclopropyl-8-(4-isobutyrylpiperazin-1-yl)-3-(5-(trifluoromethyl)-1,3,4-thiadiazol-2-yl)imidazo[1,2-a]pyridine-6-sulfonamide]
IC50 [1]: 110 nM
IC50 [2]: 3350 nM

N#CC1(NS(=O)(=O)c2cc(N3CCC4(CC3)COC4)c3cnc(-c4nnc(C(F)(F)F)s4)n3c2)CC1 [Example 209, N-(1-cyanocyclopropyl)-8-(2-oxa-7-azaspiro[3.5]nonan-7-yl)-3-(5-(trifluoromethyl)-1,3,4-thiadiazol-2-yl)imidazo[1,5-a]pyridine-6-sulfonamide]
IC50 [1]: 60.3 nM
IC50 [2]: 765 nM

CC(C)C(=O)N1CCN(c2cc(S(=O)(=O)NC3CC3)cn3c(-c4nnc(C(F)(F)F)s4)ncc23)CC1 [Example 210, N-cyclopropyl-8-(4-isobutyrylpiperazin-1-yl)-3-(5-(trifluoromethyl)-1,3,4-thiadiazol-2-yl)imidazo[1,5-a]pyridine-6-sulfonamide]
IC50 [1]: 83.2 nM
IC50 [2]: 929 nM

COc1ccc(C(=O)/C=C/C(=O)N2CCN(c3cc(S(=O)(=O)NC4(C#N)CC4)cn4c(-c5nnc(C(F)(F)F)s5)ncc34)CC2)cc1 [Example 211, (E)-N-(1-cyanocyclopropyl)-8-(4-(4-(4-methoxyphenyl)-4-oxobut-2-enoyl)piperazin-1-yl)-3-(5-(trifluoromethyl)-1,3,4-thiadiazol-2-yl)imidazo[1,5-a]pyridine-6-sulfonamide]
IC50 [1]: 209 nM
IC50 [2]: 222 nM

CN(C)C(=O)C1CCN(c2cc(S(=O)(=O)NC3(C#N)CC3)cn3c(-c4nnc(C(F)F)s4)ncc23)CC1 [Example 212, 1-(6-(N-(1-cyanocyclopropyl)sulfamoyl)-3-(5-(difluoromethyl)-1,3,4-thiadiazol-2-yl)imidazo[1,5-a]pyridin-8-yl)-N,N-dimethylpiperidine-4-carboxamide]
IC50 [1]: 110 nM
IC50 [2]: 3000 nM

N#CC1(NS(=O)(=O)c2cc(N3CCC(n4cncn4)CC3)c3cnc(-c4nnc(C(F)(F)F)s4)n3c2)CC1 [Example 213, 8-(4-(1H-1,2,4-triazol-1-yl)piperidin-1-yl)-N-(1-cyanocyclopropyl)-3-(5-(trifluoromethyl)-1,3,4-thiadiazol-2-yl)imidazo[1,5-a]pyridine-6-sulfonamide]
IC50 [1]: 31.6 nM
IC50 [2]: 1200 nM

CN(C)C(=O)C1CCN(c2cc(S(=O)(=O)NC3(C#N)CC3)cn3c(-c4nnc(C(F)(F)F)s4)ncc23)CC1 [Example 214, 1-(6-(N-(1-cyanocyclopropyl)sulfamoyl)-3-(5-(trifluoromethyl)-1,3,4-thiadiazol-2-yl)imidazo[1,5-a]pyridin-8-yl)-N,N-dimethylpiperidine-4-carboxamide]
IC50 [1]: 174 nM
IC50 [2]: 4000 nM

CC(C)S(=O)(=O)N1CCN(c2cc(S(=O)(=O)NC3CC3)cn3c(-c4nnc(C(F)(F)F)s4)ncc23)CC1 [Example 215, N-cyclopropyl-8-(4-(isopropylsulfonyl)piperazin-1-yl)-3-(5-(trifluoromethyl)-1,3,4-thiadiazol-2-yl)imidazo[1,5-a]pyridine-6-sulfonamide]
IC50 [1]: 69.2 nM
IC50 [2]: 1500 nM

Reference: patent publication US20260258035A1, “FIVE-MEMBERED AND SIX-MEMBERED NITROGEN-CONTAINING COMPOUND, AND INTERMEDIATE, PREPARATION METHOD AND USE THEREOF” (HANGZHOU SYNRX THERAPEUTICS BIOMEDICAL TECHNOLOGY CO., LTD., priority 2022, published 2026)
